This is an account of results in article PMC9745132, “Visualization of real-time receptor endocytosis in dopamine neurons enabled by NTSR1-Venus knock-in mice” (Frontiers in Cellular Neuroscience, 2022).

The test system of experiment [1] is Ntsr1^Venus/Venus and Ntsr1^WT/WT mice. As to the kind of experiment: Locomotor activity in activity boxes after i.p. injection. The format is in vivo, mouse. On the procedure: Locomotor activity was measured using Plexiglas activity boxes (20 × 20 × 20 cm) surrounded by horizontal and vertical infrared sensor beams (Versamax Omnitech Electronics, Columbus, OH, USA) during the light phase. The total numbers of animals used in locomotion experiments were n = 16 Ntsr1^Venus/Venus and n = 15 Ntsr1^WT/WT mice. Animals were habituated to the room in singly housed cages with home bedding for 1 h, before being injected with either 0.9% saline, 0.2, 0.5, 1, 5 mg/kg, PD149163, dissolved in 0.9% saline, and returned to their home cages for 30 min. Then mice were placed in horizontally opposed chambers, and horizontal movement (cm) was measured over the course of 2 h, in bins of 10 min.
Having established evidence supporting functional NTSR1-Venus receptor signaling (Gq/Ca2+) and receptor endocytosis we next evaluated behavioral responses in these animals. […] First, when animals were not yet habituated to the activity chambers and only received saline injections, we observed somewhat higher activity counts for Ntsr1^Venus/Venus compared to Ntsr1^WT/WT animals (Supplementary Figure 1). […] A significant difference at 0.2 mg/kg and a trend that was not significant at higher doses (0.5, 1, or 5 mg/kg) was observed between Ntsr1^Venus/Venus and Ntsr1^WT/WT animals (Figure 2I). […]

Experiment [2] concerns the target T1, NTSR1-Venus (Mus musculus, UniProt O88319).
T1 construct: monitoring endogenous NTSR1-Venus receptor endocytosis could differentiate NTSR1 agonists; endogenous in cells; host or cells: primary hippocampal neurons from homozygous NTSR1-Venus knock-in mice (C57BL/6N background)
As to the kind of experiment: Multiphoton imaging of NTSR1-Venus internalization in acute SN/VTA brain slices. The format is cell-based. Conditions: 10 μM on slices recovered in 1 μM SR48692. On the procedure:
Male and female Ntsr1^Venus/Venus mice aged 5 weeks were anesthetized, and 250 μm-thick coronal slices containing substantia nigra pars compacta and ventral tegmental area were prepared. Cutting solution contained (in mM): 87 NaCl, 25 NaHCO3, 25 glucose, 75 sucrose, 2.5 KCl, 1.25 NaH2PO4, 0.5 CaCl2, and 7 MgCl2; bubbled with 5% CO2/95%O2; 4°C. Following cutting, slices were incubated in the same solution for 30 min at 33°C. For control experiments, slices were subsequently incubated in the same solution at room temperature until imaging. For antagonist experiments, slices were subsequently incubated in cutting solution with 1 μM SR48962 until imaging. SR48962 was prepared as a 1 mM stock in water.
Imaging solution referred to as aCSF contained (in mM): 125 NaCl, 2.5 KCl, 2 CaCl2, 1 MgCl2, 25 NaHCO3, 1.25 NaH2PO4, 25 glucose; bubbled with 5% CO2/95% O2; 31–34°C, ∼310 mOsm. For antagonist-only experiments, 1 μM SR48962 was added to the imaging solution. For antagonist plus agonist experiments, a baseline image was taken with no NTSR1 agonist or antagonist in the imaging solution, and subsequently, 10 μM PD149163 [prepared from a stock solution in water] was added to the imaging solution. As a precautionary measure, all components that were exposed to antagonist were rinsed first with 70% ethanol and then water. All components that were exposed to agonist were replaced between experiments.
For two-photon laser scanning microscopy (2PLSM), a 2-photon source (Coherent Ultra II, Santa Clara, CA, USA) was tuned to 920 nm for imaging. […] Both epi and transfluorescence were detected with R9110 photomultiplier tubes (Hamamatsu, Shizuoka, Japan). Laser power measured at the focal plane under the objective was between 8 and 34 mW. […]
To test whether NTSR1 receptors are indeed being bound by endogenous ligand in acute slice, we compared NTSR1 distribution in slices treated with the NTSR1 specific antagonist, SR48692 ([Gully et al., 1993]). […] NTSR1-Venus puncta were then quantified in the acquired image projections by counting vesicle-sized particles (Figure 5E). […]

Experiment [3] deals with hippocampal neurons from Ntsr1^WT/WT mice. Briefly: Intracellular calcium release (Fluo-4) in hippocampal neurons from Ntsr1^WT/WT mice. The format is cell-based, mouse.

Counter-ions that a name gives are not always drawn. *1 amine or outer side, *2 acyl side, *3 side chain or, on linkers, in order; H or OH if unused. Where a SMILES comes first, the peptide text is derived from it. [ ]: non-standard residue; d: D form. X1 = NCCCC[C@H](N)CN([C@@H](CCCCN)C(=O)[*:2])[*:1]; Tle = CC(C)(C)[C@H](N)C(=O)O

T1 sequence (O88319 whole entry): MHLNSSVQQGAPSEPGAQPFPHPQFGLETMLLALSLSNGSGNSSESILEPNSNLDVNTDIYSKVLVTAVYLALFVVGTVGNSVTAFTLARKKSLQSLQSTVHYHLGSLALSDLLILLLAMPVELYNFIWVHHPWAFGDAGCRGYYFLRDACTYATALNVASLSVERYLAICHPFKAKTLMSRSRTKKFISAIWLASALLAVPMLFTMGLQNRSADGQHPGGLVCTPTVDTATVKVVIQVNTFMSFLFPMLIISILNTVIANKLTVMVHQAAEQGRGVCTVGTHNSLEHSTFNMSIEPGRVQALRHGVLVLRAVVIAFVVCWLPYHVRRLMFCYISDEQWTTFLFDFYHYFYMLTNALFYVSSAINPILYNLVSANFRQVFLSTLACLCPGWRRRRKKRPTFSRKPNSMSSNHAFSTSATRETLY

Consider `CCOC(=O)[C@H](CC(C)C)NC(=O)[C@@H](NC(=O)[C@H](Cc1c[nH]c2ccccc12)NC(=O)[C@@H]1CCCN1C(=O)[C@H](CCCCN)NC[C@@H](N)CCCCN)C(C)(C)C` [PD149163, PD149163 tetrahydrochloride hydrate] (H-[X1]PW[Tle]L-OEt; N-terminus and C-terminus assumed), for which the “hypolocomotion in Ntsr1^Venus/Venus and Ntsr1^WT/WT animals” value in experiment [1] (0.5 mg/kg i.p., measured 30 min after injection) is “induced NTSR1 mediated hypolocomotion to a similar extent”. Moreover, the “total distance traveled over 2 h as compared to saline animals” value in experiment [1] (i.p. 0.2, 0.5, 1, 5 mg/kg, both genotypes) is listed as “dose-dependent decrease”. Also, the “vesicle-sized particle counts (NTSR1-Venus puncta) vs antagonist-only treated slices” value in experiment [2] is “significantly higher than antagonist-only treated slices at 15, 30, 45, and 60 min”. Moreover, the “vesicle-sized particle counts (NTSR1-Venus puncta) vs control slices” value in experiment [2] is “significantly higher than controls at 30, 45, and 60 min”. Further, the “intracellular calcium peak increase” value in experiment [3] (0.1 μM) and in experiment [3] (1 μM) was 2 fold throughout.
